The text below walks through data of a melting point compilation (Tetko et al.; mined from patent text by program, amines drawn as free bases though some values may be those of a salt).

For `CCOc1ccc(OCC(C)(NS(=O)(=O)Cc2ccccc2)C(=O)N2CCOCC2)cc1` (stereo not given), the melting point lay within 109 to 111 °C.
`CCOc1ccccc1-c1nc2n(C3CCCC3)[nH]c(CC)c-2c(=O)n1`: the melting point lay within 146 to 147 °C.
Under `O=S(=O)(CC(F)(F)F)Nc1ccc(N2CCN(c3ccc(OCC(O)(Cn4cncn4)c4ccc(Cl)cc4Cl)cc3)CC2)cc1` (stereo not given) stands 74 to 75 °C.
Compound `COC(=O)/C=C/[C@@H](c1ccc2ccccc2c1)c1cccc2c1ccn2C(=O)OC(C)(C)C` returned a melting point of 75 to 78 °C.
Under `CCCNC(=O)N(C)C1CCN(c2ncnc3cc(OC)c(OC)cc23)CC1` stands 209 to 211 °C; under `c1cc(CC[C@H]2CNCCN2)co1`, 112 to 114 °C; under `CCCCOc1ccc(-n2cc(C(=O)OCC)cn2)cc1C#N`, 132 °C.
Under `Nc1nc(CCc2ccccc2)nc2oc(-c3ccco3)nc12` stands 206 to 208 °C; under `CC(C)OP(=O)(CNc1cc(Oc2ccc(C(F)(F)F)cc2Cl)ccc1[N+](=O)[O-])OC(C)C`, 93 to 94 °C; under `O=C1CCCCC1c1c[nH]c2ccccc12` (stereo not given), 122 to 124 °C.
The compound `OC(c1ccccc1)c1ccc2cccnc2c1` (stereo not given) yielded a melting point of 118 °C.
Under `COc1cc(Nc2nccc(-c3ccc(N4CCC(O)CC4)nc3)n2)cc(OC)c1OC` stands 127 to 128 °C; under `O=C(O)C(Cl)(Cl)CCCCCCCCCCCCCCBr`, 61 to 63 °C.
Under `CC(C)(C)c1cc(O)n[nH]1` stands 205 to 206 °C; under `Cc1cc2c(c(C)c1NC(=O)OC(C)(C)C)CCO2`, 121 to 122 °C; under `O=C(NC(Cc1cccc(C(F)(F)F)c1)C(=O)N1CCSC1)c1cc2cc(Cl)ccc2[nH]1` (stereo not given), 205 to 207 °C.
Consider `O=C(O)[C@@H]1CCc2cc(F)ccc2O1`, for which the melting point came out at 99.7 °C.
Under `CCC(=O)Nc1nnc(S)s1` stands 234 to 237 °C; under `COc1cccc(C(=O)O)c1NC(=O)C(C)(C)C`, 117 to 120 °C.
In turn, `CCc1noc(-c2cn(-c3nc[nH]n3)cn2)n1` displayed a melting point of 242 to 243 °C.
The result for `CC(C)(C)OC(=O)Nc1ccc(NC(=O)OC(C)(C)C)c(Br)c1` reads 130 °C; that for `CC(C)N(C[C@H](O)[C@H](Cc1ccccc1)NC(=O)c1ccccc1NC(=O)OCc1ccccn1)NC(=O)OC(C)(C)C`, 155 to 157 °C.
`CC(C)C[C@H](NC(=O)c1ccco1)C(=O)N[C@@H](C(C)C)[C@@H](O)c1c(-c2ccccc2)c1=O` came in with a melting point of 101 to 105 °C.
The result for `CC(C)n1cnc2c(NCc3ccccc3)nc(NCCCO)nc21` reads 98 to 101 °C.
`CNC(=O)N(C)c1cc(C)on1` displayed a melting point of 77 to 78 °C.
The result for `CCOc1cc(Br)cc2c1OC(C)(C)C2` reads 55 to 58 °C; that for `CC1(C)OC(=S)Nc2ccc(-c3cccc(CC#N)n3)cc21`, 215 to 217 °C; that for `Nc1cc(S(=O)(=O)c2ccccc2)ccc1Cl`, 105 to 107 °C.
`CC1(C)CCc2[nH]cc(C(=O)O)c2C1=O`: the melting point fell in the range of 225 to 228 °C.
The result for `CNS(=O)(=O)N1CC2(CCN(C(=O)Nc3nnc(-c4ccccc4)s3)CC2)c2ccccc21` reads 230 to 231 °C; that for `Cc1cccc(NC(=O)NC2CN(C(=O)NC3CCCCC3)c3ccccc3N(CC(=O)c3ccccc3C)C2=O)c1` (stereo not given), 117 to 119 °C; that for `C#CCN1C(=O)NC(C)(C)C1=O`, 156 to 160 °C.
Under `COCCOCCn1cc(C(=O)NCc2ccc(Cl)cc2)c(=O)c2cc(CN(C)CC#N)ccc21` stands 118 to 120 °C.
The result for `CCCOc1cc(N(CC)CC)ccc1-c1nc2cc3c(cc2[nH]1)C(C)(C)CC(=O)N3` reads 147 to 148 °C; that for `NC(=O)CCCCn1ccc(NC(N)=NCC(F)(F)F)n1`, 130 °C; that for `NC(=O)Nc1ccc(C2=NNC(=O)Cc3cc4c(cc32)OCO4)cc1`, 238 to 241 °C.
Turning to `Cc1ccc(C(N)(c2ccc3c(c2)c(-c2cccc(Cl)c2)nc2nnnn23)c2cncn2C)cc1` (stereo not given), the melting point is 150 °C.
The result for `CCOC(=O)C1=C(C)NN=C(CC)C1c1ccccc1Cl` (stereo not given) reads 112 °C.
The result for `CCCOc1cc(C2(C)CNC(=O)O2)ccc1OC` (stereo not given) reads 78 °C; that for `Cc1noc(C)c1S(=O)(=O)Nc1ccc(Cl)cc1`, 144 °C; that for `CCCCCCCCCCC(=O)c1ccncc1`, 51 to 52 °C.
`O=CC1=C(Cl)Nc2cc(Cl)c(F)cc2C1` yielded a melting point of 260 °C.
Under `CCCc1nn(C)c2c(=O)[nH]c(Cc3ccccc3NS(=O)(=O)CCCN(C)C)nc12` stands 202 to 204 °C; under `COc1nc(OC)nc(-n2cnc(SC)n2)n1`, 160 °C; under `Cc1ccc(S(=O)(=O)N2CCCC2c2cccs2)cc1` (racemic), 108 °C.
`Cc1cc(Nc2ccc(C(F)(F)F)cc2C(=O)O)n(-c2ccccn2)n1` had a melting point of 228 to 229 °C.
Regarding `Clc1cc(Cl)c(Oc2nc(Oc3c(Cl)cc(Cl)c(Cl)c3Cl)nc(Oc3c(Cl)cc(Cl)c(Cl)c3Cl)n2)c(Cl)c1Cl`, the melting point fell in the range of 165 to 168 °C.
With `CC(C)Oc1ccc(-n2c(-c3ccc(C(=O)O)cc3)c(C(=O)O)c3cc(Oc4cccc(Cl)c4)ccc32)cc1`, the melting point was 211 to 217 °C.
Under `Cn1c(C(F)(F)F)cc(=O)n(-c2ccc3snc(C4OCC(CS(C)(=O)=O)O4)c3c2)c1=O` (stereo not given) stands 184 to 188 °C.
Under `CCCCCCNCc1ccc(COc2cccc3c2CN(C2CCC(=O)NC2=O)C3=O)cc1` (stereo not given) stands 155 to 157 °C.
Compound `O=C1c2ccccc2SCC1(CO)CO` yielded a melting point of 136 to 139 °C.
The result for `Cc1ccc(-c2ccccc2)cc1C#N` reads 71 to 73 °C; that for `C[C@@H](Nc1c(-c2c(F)cc(F)cc2F)c(Cl)nc2ncnn12)C(C)(C)C`, 169 to 171 °C.
`COC(=O)c1cc(Cl)ccc1NS(=O)(=O)c1ccc(C)cc1` displayed a melting point of 112 to 114 °C.
`C[C@H](NC(=O)OCc1ccccc1)C(=O)N[C@@H](C)C(=O)Nc1ccccc1` showed a melting point of 219 to 221 °C.
Compound `CC(CC(C(O)CC(C)(C)O)N(C)C)C1CCC2C(O)CCCC12C` (stereo not given) returned a melting point of 169 to 170 °C.
In the case of `CC(C)n1nc(CC(=O)c2cccc(F)c2)ccc1=O`, the melting point is 80 to 81 °C.
The result for `CN1C(=O)C(C)(C)N=C(c2ccccc2Cl)c2cc([N+](=O)[O-])ccc21` reads 177 to 178 °C; that for `O=C1NCCCN2c3ccccc3CC12` (stereo not given), 159 °C.
`CSC1=NC2=NC3=C(CSCC3=O)CN2N1` gave a melting point of 295 to 297 °C.
For `COC(=O)c1ccccc1S(=O)(=O)NC(=O)Nc1nc(CSc2ccccn2)cc(OC)n1`, the melting point lay in the range of 175 to 181 °C.
The result for `Cn1cc(-c2ccccc2)c(=S)c(-c2cccc(C(F)(F)F)c2)c1` reads 210 °C; that for `Cc1cc(Cl)cc2c(-c3ccccc3)onc12`, 108 to 109 °C.
The result for `COc1ccc(N2CCOCC2)c2sc(C(=O)NCC(=O)c3ccc4c(c3)OCCO4)nc12` reads 175 °C; that for `CCCCC(CC)Cn1c(O)c(N=Nc2ccc(S(=O)(=O)N(CCO)CCO)cc2)c(C)c(C#N)c1=O` (stereo not given), 189 to 190 °C.
Under `C(=Cc1cc2cc3ccccc3cc2s1)c1ccccc1` stands 305 to 307 °C; under `Cc1cccc2[nH]c(Nc3ccc(CC(=O)O)cc3)nc12`, 385 to 387 °C; under `COC(=O)CCc1ccc(C#CC2(O)CN3CCC2CC3)c(CO)c1` (stereo not given), 35.8 °C.
On to `CN(C)c1nc2sc3c(NCc4cccnc4)ncnc3c2c2c1CCC2(C)C`, for which the melting point lay in the range of 237 to 238 °C.
Under `N#Cc1ccc(C(=O)c2ccccc2S)cc1` stands 98 to 100 °C; under `CCOC(=O)C1=C(C)NC(COC(=O)COc2ccc(Cl)cc2)=C(C(=O)OCC)C1c1ccccc1[N+](=O)[O-]` (stereo not given), 86 to 88 °C.
For the compound `CN1CCN(c2cccc3ccc(C(=O)NCc4ccc(Cl)cc4)cc23)CC1`, the melting point was 72 to 74 °C.
Under `FC(F)(F)/C(=C(\c1ccccc1)c1ccc(OCCN2CCOCC2)cc1)c1ccccc1` stands 84 to 89 °C; under `COc1cccc2c(=O)n(S(=O)(=O)c3ccc(Cl)cc3)c(=O)[nH]c12`, 220 to 222 °C; under `Cc1oc(-c2ccco2)nc1COc1ccc(COc2nn(Cc3ccccc3)cc2C(=O)O)cc1Cl`, 191 to 192 °C.
The result for `N#Cc1cc(F)c(NN=CC(=O)C(F)(F)F)nc1Cl` reads 174 to 176 °C; that for `CCCCCCCCCCCCNc1ncnc2nc[nH]c12`, 159 to 160 °C.
The result for `C=CC[C@H]1CC(C(=O)OC)=C[C@H](N=[N+]=[N-])[C@H]1OS(C)(=O)=O` reads 70 to 72 °C; that for `CN1C(=O)C2(COc3cc4c(cc32)OCCO4)c2c(NS(C)(=O)=O)cccc21` (stereo not given), 184 to 186 °C; that for `CS(=O)c1nnc2n1C=Cc1ccccc1C2` (stereo not given), 176 to 177 °C.
`CC(C)(C)OC(=O)Nc1cc(N2CCC3(CC2)OCCO3)c(-c2ccccc2F)cc1[N+](=O)[O-]` registered a melting point of 164 °C.
The compound `COc1ccccc1S(=O)(=O)c1c(NS(=O)(=O)c2ccc(C(C)(C)C)cc2)ncnc1OCCOc1ncc(Br)cn1` gave a melting point of 208 °C.
The result for `CCCCCCCCCSCCCN=C=O` reads 86 to 88 °C; that for `COc1ccc2cc([C@H](C)C(=O)OC(C)C(=O)NCC(=O)O)ccc2c1` (stereo not given in full), 174 to 175 °C.
In the case of `COc1ccc(S)c(C(=O)O)c1`, the melting point lay within 173 to 178 °C.
Under `COc1cc(S(C)(=O)=O)ccc1-n1nc(C(F)(F)F)cc1-c1ccc(-c2ccco2)cc1` stands 200 °C; under `COc1ccc2cc(OCc3ccccc3)c(N)cc2c1`, 149 to 151 °C; under `CCOC(=O)C(=O)Nc1ccc(C(=O)NC2CCN(C3CCCCC3)C2)cc1` (stereo not given), 138 to 141 °C.
The result for `CCC(=O)c1c(-c2ccncc2)[nH]c(-c2ccncc2)c1C` reads 237 to 238 °C.
Under `CCN(CC)C(=O)n1ccc(S(=O)(=O)c2cccc(Cl)c2C)n1` stands 76 to 77 °C.

As usually defined, the melting point is the temperature, or range, at which the solid turns liquid.
